These results are taken from patent US20160318928A1, “TRICYCLIC COMPOUNDS AS ANTICANCER AGENTS” (BRISTOL-MYERS SQUIBB COMPANY, priority 2013, published 2016).

Molecules are shown by their SMILES.

The subject of test [1] is H187 Human Small Cell Carcinoma. Briefly: Human tumor xenograft model in mice, H187. The format is in vivo. From the text:
(§1) Human Tumor Xenograft Models in Mice
(§2) All rodents were obtained from Jackson Laboratory. (Bar Harbor, Me.), and maintained in an ammonia-free environment in a defined and pathogen-free colony. All mice were quarantined approximately 1 week prior to their use for tumor propagation and drug efficacy testing. Mice were fed food and water ad libitum. The animal care program of Bristol-Myers Squibb Pharmaceutical Research Institute is fully accredited by the American Association for Accreditation of Laboratory Animal Care (AAALAC). All experiments were performed in accordance with Bristol-Myers Squibb (BMS) animal test methods and guidelines.
(§3) Tumor xenografts were grown and maintained subcutaneously (SC) in NSG (NOD scid IL2 receptor gamma chain knockout) mice (Jackson Lab). Tumors were propagated as subcutaneous transplants using tumor fragments obtained from donor mice.
(§4) Preclinical Chemotherapy Trials
(§5) The required numbers of animals needed to detect a meaningful response were pooled at the start of the experiment and each was given bilateral subcutaneous implants of two tumor fragments (˜20 mg) with a 13-gauge trocar. Tumors were allowed to grow to the pre-determined size window (tumors outside the range were excluded) and animals were evenly distributed to various treatment and control groups. There were typically 6-8 mice per treatment and control groups, consisting of 10-12 tumors. Treatment of each animal was based on individual body weight. Treated animals were checked daily for treatment related toxicity/mortality. Each group of animals was weighed before the initiation of treatment (WO and then again following the last treatment dose (Wt2). The difference in body weight (Wt2-Wt1) provides a measure of treatment-related toxicity.
(§6) Tumor response was determined by measurement of tumors with a caliper twice a week, until the tumors reached a predetermined “target” size of 0.5 gm or 1 gm depending on the tumor type. Tumor weights (mg) were estimated from the formula:
(§7) Tumor weight=(length×width^2)÷2
(§8) Tumor response criteria are expressed in terms of tumor growth inhibition (% TGI). Tumor growth delay is defined as the difference in time (days) required for the treated tumors (T) to reach a predetermined target size compared to those of the control group (C). For this purpose, the tumor weight of a group is expressed as medium tumor weight (MTW).
(§9) Tumor growth inhibition is calculated as follows:
(§10) where, Ct=Median control tumor size at end of treatment C0=Median control tumor size at treatment initiation Tt=Median tumor size of treated group at end of treatment T0=Median tumor size of treated group at treatment initiation
(§11) Tumor response was also expressed in terms of tumor growth delay and expressed as log cell kill (LCK value), defined as the difference in time (days) required for the treated tumors (T) to reach a predetermined target size compared to those of the control group (C).
(§12) Whenever possible, antitumor activity was determined at a range of dose levels up to the maximum tolerated dose (MTD) which is defined as the dose level immediately […] which excessive toxicity (i.e. more than one death) occurred. When death occurred, the day of death was recorded. Treated mice dying prior to having their tumors reach target size were considered to have died from drug toxicity. No control mice died bearing tumors less than target size. Treatment groups with more than one death caused by drug toxicity were considered to have had excessively toxic treatments and their data were not included in the evaluation of a compound's antitumor efficacy.
(§13) For administration of BET inhibitors to rodents, compounds were dissolved in […]/10% TPGS/10% Ethanol. BET inhibitors were typically administered orally on a schedule of QDx7 or QDx10 (5 day-on-2 day-off), although other schedules had also been evaluated and shown to be efficacious
For orientation: A xenograft is tissue or cells of one species grown in another, often human tumour cells in immunodeficient mice.

Test [2] concerns JJN3R multiple myeloma cell line. The test can be described thus: Human tumor xenograft model in mice, JJN3R. The format is in vivo. The note with it: Mus musculus, JJN-3R, po, QDx7, read-out: % TGI.
From the text: as §1, §2, §3, §4, §5, §6, §7, §8, §9, §10, §11, §12, §13

The target of the next test is BRD4 (Homo sapiens, UniProt O60885). Briefly: Time resolved fluorescence resonance energy transfer (TR-FRET) binding assay, BRD4 bromodomain. The note with it: one of the FRET assays described. Background: TR-FRET usually uses a lanthanide donor and a delayed reading to cut background.

As to `Cc1noc(C)c1-c1cnc2c3ccc(C(C)(C)O)cc3n(C(c3ccccc3)C3CCOCC3)c2c1` (single isomer, unassigned) [Example 1, 2-[3-(Dimethyl-1,2-oxazol-4-yl)-5-[oxan-4-yl(phenyl)methyl]-5H-pyrido[3,2-b]indol-7-yl]propan-2-ol], in test [1] (5 mg/kg, 2QDx7), the “% TGI” value turned out to be 88.0% and the LCK came to 1.0. In test [1] (15 mg/kg, 2QDx7), the “% TGI” value is 104.0% and the LCK is 1.2.
In the case of `Cc1nnn(C)c1-c1cnc2c3ccc(C(C)(C)O)cc3n([C@H](c3ccccc3)C3CCOCC3)c2c1` (single isomer, unassigned) [Example 54], in test [1] (5 mg/kg, QDx7), the “% TGI” value stood at 100.0% and the LCK amounted to 0.7. Further, in test [1] (10 mg/kg, QDx7), the “% TGI” value was determined as 102.0% and the LCK is given as 0.9.
For `[2H]C([2H])([2H])c1nnn(C)c1-c1cnc2c3ccc(C(C)(C)O)cc3n(C(c3ccc(F)cc3)C3CCOCC3)c2c1` (centres unmarked) [Example 267], in test [2], the inhibition in vivo at 1 mg/kg worked out at 10% and the inhibition in vivo at 4 mg/kg is 67%. The molecule further showed an IC50 on BRD4 of under 5 nM.
As for `[2H]C([2H])([2H])c1nnn(C)c1-c1cnc2c3ccc(C(C)(C)O)c(F)c3n([C@H](c3ccccc3)C3CCOCC3)c2c1` [Example 278, 2-{6-Fluoro-3-[4-(^2H3)methyl-1-methyl-1H-1,2,3-triazol-5-yl]-5-[(S)-oxan-4-yl(phenyl)methyl]-5H-pyrido[3,2-b]indol-7-yl}propan-2-ol], in test [2], the inhibition in vivo at 1 mg/kg came out at 103% and the inhibition in vivo at 4 mg/kg was found to be 110%.
In the same order, the values of `[2H]C([2H])([2H])c1nnn(C)c1-c1cnc2c3cc(F)c(C(C)(C)O)cc3n([C@H](c3ccccc3)C3CCOCC3)c2c1` [Example 279, 2-{8-Fluoro-3-[4-(^2H3)methyl-1-methyl-1H-1,2,3-triazol-5-yl]-5-[(S)-oxan-4-yl(phenyl)methyl]-5H-pyrido[3,2-b]indol-7-yl}propan-2-ol] are 88% and 110%.
As for `[2H]C([2H])([2H])c1nnn(C)c1-c1cnc2c3ccc([C@@](C)(O)C4CC4)c(F)c3n([C@H](c3ccccc3)C3CCOCC3)c2c1` [Example 433, (1 S)-1-cyclopropyl-1-{6-fluoro-3-[4-(^2H3)methyl-1-methyl-1H-1,2,3-triazol-5-yl]-5-[(S)-oxan-4-yl(phenyl)methyl]-5H-pyrido[3,2-b]indol-7-yl}ethan-1-ol], the inhibition in vivo at 1 mg/kg in test [2] is 54%.
Still for that read-out and setting: the value for `[2H]C([2H])([2H])c1nnn(C)c1-c1cnc2c3ccc([C@](C)(O)C4CC4)c(F)c3n([C@H](c3ccccc3)C3CCOCC3)c2c1` [Example 434, (1R)-1-cyclopropyl-1-{6-fluoro-3-[4-(^2H3)methyl-1-methyl-1H-1,2,3-triazol-5-yl]-5-[(5)-oxan-4-yl(phenyl)methyl]-5H-pyrido[3,2-b]indol-7-yl}ethan-1-ol] was 82%.

In general, IC50 refers to the concentration that gives 50% inhibition.
